Assays:
[1] = system: PR Ser294 phosphorylation; assay: PR Ser294 phosphorylation in T47D cells (Western blotting, immunofluorescence); type: cell-based, human; details: T47D cells expressing WT or KR PR; for PR Ser294 phosphorylation, ligand alone: 1 hour; for PR Ser294 phosphorylation in the presence of progesterone (co-treatment): progesterone plus antiprogestin
Experimental: T47D human breast cancer cell lines engineered to stably express PR variants (null, WT, K388R, or S294A) were previously described (Knutson et al. Breast Cancer Res 2012, 14:R9). T47D cells were maintained in complete minimal essential medium (cMEM) supplemented with 5% fetal bovine serum (FBS), 1% non-essential amino acids (NEAA), 1% penicillin/streptomycin, 6 ng/ml insulin (CellGro, Manassas, Va., USA, catalog #10-010-CV). T47D cells described above were engineered to also stably express RUNX2 shRNAs via the pLKO.1 knockdown expression vector system, which required 25 μg/ml puromycin for the vector. In various experiments, cells or explants were treated with E2, ICI 182 780, R5020, mifepristone, aglepristone, or onapristone (Arno Therapeutics, Inc., Flemington, N.J.).
Immunocytochemistry was performed on T47D cells expressing PR variants to measure total- and phospho-Ser294 PR levels. 500,000 cells were grown on coverslips in 6-well plates, starved in IMEM plus 5% charcoal stripped FBS, treated, and fixed with 4% paraformaldehyde for 20 min. The cells were permeabilized with 0.3% Triton-X100 before incubating with total-PR (clone Ab8, ThermoFisher Scientific, Waltham, Mass.) or custom phospho-Ser294-PR (clone 8508) antibodies. Cells were incubated with fluorescent secondary antibodies (Alexa Fluor 488) and DAPI mounting medium (Life Technologies, ThermoFisher Scientific, Waltham, Mass.) before visualizing on a Zeiss microscope with A4 and L5 filter cubes. Immunoblotting was performed as previously described (Daniel et al. Mol Endocrinol 2007, 21:2890-2906).
In addition, extensive luminal breast cancer heterogeneity may limit the ability to observe a subset of PR-driven breast cancers without patient selection. In this case, PR target gene expression may provide an accurate means of predicting which breast tumors are likely to be influenced by PR-driven biological pathways enacted by active phospho-Ser294 PRs. To probe changes in PR target gene expression in the presence or absence of commonly used PR ligands (R5020, RU486), including diverse antiprogestins (aglepristone, onapristone) currently in development for clinical use, the well characterized model system of T47D breast cancer cells, stably expressing either unmodified wild-type (WT) PR-B or a transcriptionally hyperactive form of deSUMOylated K388R PR-B (KR; this receptor faithfully mimics phosphorylated PR-B with regard to target gene selection) were used (Knutson et al. Pharmacology & therapeutics 2014, 142:114-125; Daniel et al. Mol Endocrinol 2007, 21:2890-2906). Whether the antiprogestins mifepristone (also called RU486), aglepristone, or onapristone alter PR Ser294 phosphorylation were tested in these T47D breast cancer models. Cells were treated for 1 hour with vehicle, progesterone, mifepristone, aglepristone, or onapristone and whole cell lysates were processed for Western blotting or immunofluorescence (IF) analysis (FIG. 4A, B). […] Greater loss of total KR PR protein was also apparent in the presence of progesterone and selected antiprogestins relative to liganded WT PR, consistent with increased turnover of deSUMOylated active receptors relative to intact WT PRs.

[2] = system: PR target gene expression; assay: Global gene expression analysis (Illumina HT-12v4) in T47D cells expressing WT or K388R PR-B; type: cell-based, human; details: for regulation of PR target genes in cells expressing KR PR: T47D KR PR
Experimental: For genome-wide microarray expression analysis, T47D cells expressing pIRES-neo3 empty vector, WT PR, or K388R PR were serum starved in modified improved minimum essential media (IMEM) (Gibco, ThermoFisher Scientific, Waltham, Mass.) for one day before treatment. Eight groups were treated with vehicle control, progesterone (10^−8 M), mifepristone (10^−7 M), aglepristone (10^−7 M), onapristone (10^−7 M), or combined treatment of progesterone+mifepristone, progesterone+aglepristone, or progesterone+onapristone for six hours before RNA extraction using a RNeasy kit (QIAgen). DNase I treated (QIAgen) RNA samples from triplicate experiments were prepared for expression analysis using the Illumina HT-12v4 bead chip platform according to standard protocols. Raw data from agonist-treated cells (progesterone or R5020) collected from two identically performed independent experiments (from this study and a previous study: GSE34148 (Knutson et al. Breast Cancer Res 2012, 14:R95)) was combined, normalized, and batch-corrected to ensure that gene expression values were informative across samples from separate experiments. Data were analyzed within multiple common R (R Core Team: R: A language and environment for statistical computing. R Foundation for Statistical Computing, Vienna, Austria 2015, [available on the world wide web at r-project.org/]) and Bioconductor (Gentleman et al. Genome Biol 2004, 5:R80) packages. Raw intensities were log 2 transformed and quantile normalized using lumi (Du et al. Bioinformatics 2008, 24:1547-1548), batch corrected using sva (Leek et al.: sva: Surrogate Variable Analysis. R package version 3.18.0.), and multiple probes for a single gene were collapsed using genefilter (Gentleman et al.: genefilter: genefilter: methods for filtering genes from high-throughput experiments. R package version 1.52.1). Differentially expressed genes (pairwise comparisons between all eight groups) were analyzed in limma (Smyth: Limma: linear models for microarray data. In: Bioinformatics and computational biology solutions using R and Bioconductor. edn.: Springer; 2005: 397-420), where empirical Bayes was used to better estimate the variance of the genes. Biological comparisons (for example, R5020/vehicle) were presented as log 2 fold change including the Benjamini and Hochberg (BH) adjusted P value (Benjamini et al. J Roy Stat Soc B Met 1995, 57:289-300) to account for multiple hypothesis testing. Expression data is available in the GEO database, accession: GSE94363.
Normalized gene expression data were filtered to isolate only high variance genes using the bioconductor package genefilter (Gentleman et al.: genefilter: genefilter: methods for filtering genes from high-throughput experiments. In., R package version 1.50.0 edn: R package version 1.50.0) using interquartile range cutoff value of 0.85. Non-negative matrix factorization (NMF) was performed within R using the NMF package version 0.20.5 (Gaujoux et al. BMC bioinformatics 2010, 11:367) where matrix factors were rank (2-10) and algorithm (brunet or snmf/r) optimized using the nmf function with parameters nrun=30 and seed=123456. […] Clustering and plots were performed in R (NMF package, a heat map function) using Euclidean distance and UPGMA (average) linkage.
PR ligand-mediated promoter selectivity remains understudied, especially in the context of antiprogestins and posttranslationally modified PR species. […]

Compound	PR Ser294 phosphorylation, ligand alone [1]	PR Ser294 phosphorylation in the presence of progesterone (co-treatment) [1]	regulation of PR target genes in cells expressing KR PR ([2]; antiprogestin 10^-7 M, 6 hours)	regulation of PR target genes in cells expressing WT PR ([2]; T47D WT PR, antiprogestin 10^-7 M, 6 hours)	PR transcriptional activity (hierarchical clustering of regulated genes) ([2]; T47D WT or KR PR, compared with PR-null cells)
CC(=O)[C@H]1CC[C@H]2[C@@H]3CCC4=CC(=O)CC[C@]4(C)[C@H]3CC[C@]12C [progesterone]	stimulated PR Ser294 phosphorylation				
CN(C)c1ccc([C@H]2C[C@]3(C)[C@@H](CC[C@]3(O)CCCO)[C@@H]3CCC4=CC(=O)CCC4=C32)cc1 [onapristone]	had no effect on PR Ser294 phosphorylation	blocked Ser294 phosphorylation in the presence of progesterone	does not substantially regulate PR target genes in either cell line	does not substantially regulate PR target genes in either cell line	effectively inhibited PR (either WT or KR) transcriptional activity comparable to the level found in PR-null (control) cells
CC#C[C@]1(O)CC[C@H]2[C@@H]3CCC4=CC(=O)CCC4=C3[C@@H](c3ccc(N(C)C)cc3)C[C@@]21C [mifepristone]	stimulated robust PR Ser294 phosphorylation	also induced Ser294 phosphorylation	substantially regulate multiple genes in cells expressing KR PR		

Source: patent publication US10942183B2, “Methods of detecting progesterone receptor and of detecting an expression level” (REGENTS OF THE UNIVERSITY OF MINNESOTA, priority 2017, dated 2021)
